Test results from patent publication US20180021456A1, “SELF-ASSEMBLED TARGETED INCLUSION COMPLEXES FOR DRUG DELIVERY” (UNIVERSITY OF SOUTH FLORIDA, priority 2015, published 2018).

Legend:
[1] = system: extracellular signal-regulated kinases 1 and 2 (ERK1 and ERK2); assay: Rapid phosphorylation of ERK1 and ERK2 (MAPK) after treatment; assay type: cell-based; details: treatment at 1 μM
Excerpt: Western Blot: In all cases, unless otherwise indicated, the western blots were visualized by Bio-Rad digital imaging system and analyzed by Quantity One 1-D analyzing software.

[2] = system: MCF-7 cells; assay: Competition assay of estrone and tamoxifen with CDE1-Ada-DOX uptake in MCF-7 cells (flow cytometry); assay type: cell-based, human; details: CDE1-Ada-DOX 2 μM
Procedure: FIG. 17 is a bar graph of the fluorescence intensity for competition assay of CDE1-Ada-DOX at 2 μM in MCF-7 cells in the presence of estrone and tamoxifen at 0.1-10 μM. The results are represented as means±SD from triplicate determinations.
Flow cytometer: In all cases, unless otherwise indicated, the flow cytometric analysis was performed on a FACS (Becton Dickinson Immunocytometry Systems, San Jose, Calif.) by counting 10,000 events.
Moreover, the competition assay of estrone and tamoxifen with CDE1-Ada-DOX in MCF-7 cells was conducted and is shown in FIG. 17. […] Moreover, the ER antagonist-tamoxifen, which is the most prescribed medicine to treat hormone receptor-positive breast cancer, is capable of binding to the estrogen receptor but blocks its activity. […] While for both estrone and tamoxifen, inhibition saturated at concentrations higher than 5 μM. […] Addition of an Ada-DOX guest led to the decomplexation of the estrogen moiety. […] The results are consistent and replicable with the TEM/SEM observations.

| Structure (SMILES) | time of maximum MAPK phosphorylation [1] [min] | inhibition at 5 µM ([2]; Homo sapiens, MCF7, competitor at 5 μM) [%] | inhibition of CDE1-Ada-DOX uptake ([2]; competitor at 1 μM and above (p<0.001)) |
| --- | --- | --- | --- |
| C[C@]12CC[C@@H]3c4ccc(O)cc4CC[C@H]3[C@@H]1CC[C@@H]2O [E2, 17β-estradiol] | 10 |  |  |
| CC/C(=C(\c1ccccc1)c1ccc(OCCN(C)C)cc1)c1ccccc1 [tamoxifen] |  | 80 | significantly inhibited |
